Assay results as given in patent publication US20110223221A1, “STABILIZATION PROCESSES OF CATION RADICALS OF PHENOTHIAZINIC COMPOUNDS, COSMECEUTICAL FORMULATIONS AND METHODS FOR SKIN DISEASES AND DISTURBANCES PREVENTION” (priority 2008, published 2011).

Legend:
[1] = UV light transmittance in a quartz plate (Australian Method); format: physicochemical; settings: solution of 2.0 mg/cm^2 in a quartz plate, 320 to 360 nm
Description: In order to analyze the transmittance of UV light in the wavelength of 320 to 360 nm, solutions of 2.0 mg/cm^2 of the phenothiazines TR, TFP and FP were used in a quartz plate.
As it can be observed, in these conditions, TR, TFP and FP block the passage of almost 100% of UV light incidence (FIG. 1). This evaluation was obtained based on the Australian Method (Perassinoto, N. L., Journal In Comesto, VII Ed., 2006), which was elected the most adequate, because it considers the ε of UVA region of absorption. The other methods are based in the 320 and 360 nm absorption ratio and can generate false negative results. According to the Australian Method, it will be a good sunscreen the compound that blocks 90% of UVA light incidence. In the case of the said cation radicals of the phenothiazines of the present invention, the blockage was of 99.99%.
A solution of 2.0 mg of drug/cm^2 was submitted to an analytical assay in a quartz plate, in the wavelength range from 320 to 360 nm, in order to verify the area of UV light transmittance (FIG. 7).
This evaluation was performed based in the Australian Method (Perassinoto, N. L.; Journal In Comesto; VII edition; p. 06; 2006), which was elected the most adequate, because it considers the ε of UVA region of absorption. The other methods are based in the 360 and 320 nm absorption ratio and can generate false negative results. According to the Australian Method, it will be a good sunscreen the compound that blocks 90% of UVA light incidence.

[2] = biological target: methionine 80 of cytochrome c (Homo sapiens, UniProt P99999); test: Photooxidation of model protein cytochrome c under UV irradiation, measured by dislocation to the blue of the Soret band; format: biochemical; settings: for initial rate of dislocation to the blue of the Soret band: pH=4.0, 120 min UV (without drug 0.42); for effect on damage to cytochrome c: stabilized cation radicals 25 μM
Description: (§1) It was analyzed the effect of the concentration of the phenothiazine derived compounds of the present invention TR (graph A, FIG. 2) and TFP (graph B, FIG. 2), on the photooxidation of the model protein (methionine 80 of cytochrome c), measured by the degree of deviation to the blue of the Soret band.
(§2) The white circle, in A and B, represents the damage caused to the protein after two hours of irradiation under UV light at 254 nm, at temperature of 25° C., at pH 4.
(§3) The effect of the media pH on the initial velocity of oxidation of methionine 80 of cytochrome c was analyzed at an UV irradiation of 254 nm, during 120 min, in the absence and in the presence of the stabilized cation radicals of TR, TFP and FP (FIG. 3). In the presence of the stabilized cation radicals of TR, TFP and FP, de concentration range of 5 to 2500 μM for pH 4.0 and the concentration range of 25 to 2500 μM for the pH range of 3.0 to 7.0 were used.
(§4) Samples containing cytochrome c 3 μM and TR 25 μM were irradiated at 254 nm, in phosphate buffer 5 mM, pH=4.0, at […]., in a cuvette, at 4 cm from a UV lamp of 4 W. The spectrum of cytochrome c and of phenothiazine were obtained before the irradiation (fine solid line of FIG. 4) and after 60 and 120 min of irradiation (dotted line and thick solid line, respectively, of FIG. 4). The spectrum shown in the curves corresponds to the overlapping spectrum changes of the phenothiazines detected during the same indicated time points.
(§5) The experiment described in the Example 4 was repeated for different concentrations of phenothiazines. The initial rate of dislocation to the blue of the Soret band was defined regarding the concentration of phenothiazine.
(§6) The irradiation of the cytochrome c was performed during 120 min, pH=4.0 and under UV lamp of 4 W, which led to the dislocation to the blue of the Soret band from 409 to 406 nm, with initial rate of 0.42 ms^−1 (open circle, FIG. 5).
(§7) Irradiation of the cytochrome c 3 μM was performed, for a pH variation range from 3.0 to 7.0. In this pH range, the phenothiazine remained predominately protonated due to its pKa of 8.1. […] In the said pH range, the initial rate of dislocation to the blue of the Soret band was determined, after 120 min of UV irradiation, in the presence and in the absence of TR (FIG. 6).

[3] = Absorption bands of the cationic radicals; format: physicochemical; settings: pre-micellic aggregates and micelles
[4] = tested on: methionine 80 of cytochrome c; test: Photooxidation of model protein cytochrome c under UV irradiation, measured by dislocation to the blue of the Soret band; format: biochemical; settings: pH=4.0, 120 min UV (without drug 406 nm)
Description: as §1, §2, §3, §4, §5, §6, §7

[5] = two hours UV 254 nm, 25° C., pH 4

Chain of methionine 80 of cytochrome c (Homo sapiens, UniProt P99999) (P99999 whole entry): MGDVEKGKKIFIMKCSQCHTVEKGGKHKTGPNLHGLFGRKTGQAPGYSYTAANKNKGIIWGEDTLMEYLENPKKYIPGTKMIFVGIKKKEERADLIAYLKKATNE
Chain of methionine 80 of cytochrome c (P99999 whole entry): as above

Structure (SMILES) | blockage of the passage of UV light incidence [1] [%] | concentration up to which increasing drug exacerbated the damage (maximum damage) [2, 5] [µM] | absorption band of the cationic radical [3] [nm] | effect on rate of dislocation to the blue of the Soret band ([2]; 25 μM, pH range from 5.0 to 7.0, 120 min UV) | increase of the initial rate of dislocation to the blue ([2]; 25 μM, pH=3.0) [%] | increase of the initial rate of dislocation to the blue ([2]; 25 μM, pH=4.0) [%] | effect on dislocation rate to the blue ([2]; drug 5 μM, pH=4.0, 120 min UV) | initial rate of dislocation to the blue of the Soret band ([2]; drug 25 μM) [ms^−1] | initial rate of dislocation to the blue of the Soret band ([2]; drug 2500 μM) [ms^−1] | reduction of the initial rate of dislocation to the blue of the Soret band ([2]; high concentrations, pH=4.0) | effect on damage to cytochrome c ([2]; pH range from 5.0 to 3.0) | effect on damage to cytochrome c ([2]; pH range from 5.0 to 7.0) | effect on photooxidation damage of cytochrome c at very low concentrations [2, 5] | Soret band after irradiation ([4]; drug 25 μM) [nm] | Soret band after irradiation ([4]; drug 2500 μM) [nm]
c1ccc2c(c1)Nc1ccccc1S2 [PHT, 10H-phenothiazine] | ~100 | – | – | – | – | – | – | – | – | – | – | – | – | – | –
OCCN1CCN(CCCN2c3ccccc3Sc3ccc(C(F)(F)F)cc32)CC1 [FP, 2-[4-[3-[2-(trifluoromethyl)-10H-phenothiazin-10-yl]propyl]piperazin-1-yl]ethanol] | ~100 | 10 | 520 | – | – | – | – | – | – | – | – | – | – | – | –
CN1CCN(CCCN2c3ccccc3Sc3ccc(C(F)(F)F)cc32)CC1 [TFP, 10-[3-(4-methylpiperazin-1-yl)propyl]-2-(trifluoromethyl)-10H-phenothiazine] | ~100 | – | 520 | – | – | – | – | – | – | – | – | – | – | – | –
CSc1ccc2c(c1)N(CCC1CCCCN1C)c1ccccc1S2 (stereo not drawn) [TR, 10-[2-(1-methyl-2-piperidyl)ethyl]-2-methylsulfanyl-phenothiazine] | ~100 | 25 | 615 | slight reduction | 250 | ~50 | discrete reduction | 0.6 | 0.23 | around 50% | progressively increased the damage | slightly protected | slight protection | 405 | 407
